Article PMC7070283, “Effect of Copper on the Mitochondrial Carnitine/Acylcarnitine Carrier Via Interaction with Cys136 and Cys155. Possible Implications in Pathophysiology” (Molecules, 2020)

Target: T1, native carnitine/acylcarnitine carrier (CAC) (Rattus norvegicus, UniProt P97521)
T1 construct: the native protein extracted from rat liver mitochondria; from tissue; host or cells: rat liver mitochondria
T1 sequence (P97521 1-301): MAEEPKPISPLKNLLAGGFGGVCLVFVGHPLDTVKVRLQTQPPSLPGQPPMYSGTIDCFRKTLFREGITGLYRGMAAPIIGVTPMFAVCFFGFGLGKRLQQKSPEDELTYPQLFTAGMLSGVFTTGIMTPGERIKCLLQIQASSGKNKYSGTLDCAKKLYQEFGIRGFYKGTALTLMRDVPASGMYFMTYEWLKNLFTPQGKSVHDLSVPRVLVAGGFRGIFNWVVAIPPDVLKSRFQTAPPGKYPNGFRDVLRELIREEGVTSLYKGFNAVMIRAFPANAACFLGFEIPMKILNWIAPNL
Test: [3H]carnitine/carnitine antiport in proteoliposomes reconstituted with native CAC extracted from rat liver mitochondria
Type: biochemical
Conditions: intact rat liver mitochondria incubated 1 h with CuCl2 (50 µM) or GSH (5 mM), then CAC extracted and reconstituted
Experimental: Figure 2 Dose-response analysis of copper effect on the native CAC. Proteoliposomes reconstituted with the CAC extracted from rat liver mitochondria were incubated with (○) CuCl2 or (●) CuCl at the indicated concentrations for 1 min, and then the transport activity was measured by adding 0.1 mM [^3H]carnitine and stopped after 10 min as described in Materials and Methods. Percent of residual activity with respect to the control, without copper treatment, is reported. The values are the means ± SD from three independent experiments.
The recombinant CAC (WT and mutant) proteins were used for proteoliposome formation as previously described. For the experiments with the native protein, rat liver mitochondria were first purified using the standard procedure of cell disruption and differential centrifugation. […]
Transport was started by adding 0.1 mM [^3H]carnitine to proteoliposome samples and, at the indicated time interval stopped by 1.5 mM NEM. […] After terminating the transport reaction, the external substrate was removed by chromatography on Sephadex G-75 columns, and the intraliposomal radioactivity was measured. Transport was measured at 25 °C. […] Transport rates were measured in 5 min, i.e., within the initial linear range of the time course.

For `N[C@@H](CCC(=O)N[C@@H](CS)C(=O)NCC(=O)O)C(=O)O` [GSH, reduced glutathione], the “effect on transport with respect to protein from untreated mitochondria” value was “did not exert any appreciable effect”.
